This note sets out measurements from US6608004B2, “Substituted 2-aryl-1,2,4-triazine-3,5-di(thi)ones” (priority 1999, dated 2003).

Data set [1] is described as follows: logP determination by HPLC, reversed-phase column (C 18), EEC Directive 79/831 Annex V.A8. An excerpt: (a) Mobile phases for the determination in the acidic range: 0.1% aqueous phosphoric acid, acetonitrile; linear gradient from 10% acetonitrile to 90% acetonitrile—the corresponding measurement results are labelled in Table 1 with ^a).
(b) Mobile phases for the determination in the neutral range: 0.01 molar aqueous phosphate buffer solution, acetonitrile; linear gradient from 10% acetonitrile to 90% acetonitrile—the corresponding measurement results are labelled in Table 1 with ^b).

Data set [2] has as its system weeds. As to the kind of experiment: Pre-Emergence Test (Example A), activity against weeds. In kind it is in vivo. The following applies: soil sprayed about 24 hours after sowing, rated after three weeks. An excerpt:
(§1) Solvent: 5 parts by weight of acetone
(§2) Emulsifier: 1 part by weight of alkylaryl polyglycol ether
(§3) Seeds of the test plants are sown in normal soil.
0%=no effect (like untreated control)

Data set [3] concerns crop plants, such as, for example, barley, wheat, rapeseed, soya and sugar beet. The experiment in a line: Pre-Emergence Test (Example A), tolerance by crop plants. In kind it is in vivo.
Text: as §1, §2, §3

Data set [4] deals with weeds. As to the kind of experiment: Post-Emergence Test (Example B), activity against weeds. In kind it is in vivo. The following applies: test plants of a height of 5-15 cm sprayed, rated after three weeks.
Text: as §1, §2
(§4) After three weeks, the degree of damage to the plants is rated in % damage in comparison to the development of the untreated control.

In data set [5] the test system is crop plants, such as, for example, barley and wheat. The experiment in a line: Post-Emergence Test (Example B), tolerance by crop plants.
Text: as §1, §2, §4

SMILES strings stand for the structures. Like-named read-outs stand apart in the source and are kept apart here.

For the compound `CCS(=O)(=O)N(C(=O)CC(C)C)c1cc(-n2ncc(=O)n(C)c2=O)c(F)cc1C#N` [Example 20], the “logP a)” value in data set [1] is given as “logP = 2.65^a)”. Moreover, the “activity against weeds (degree of damage)” value (“activity against weeds” for short) in the data set on weeds [2] and in the data set on weeds [4] was “very strong activity” throughout. Further, the “tolerance by crop plants” value in data set [3] (in vivo) and in data set [5] (in vivo) was “essentially being tolerated well” each time.

As for `CCS(=O)(=O)N(C(=O)CCCCCl)c1cc(-n2ncc(=O)n(C)c2=O)c(F)cc1C#N` [Example 22], in data set [1], the “logP a)” value is “logP = 2.65^a)”. Also, the “activity against weeds” value in the data set on weeds [2] and in the data set with weeds [4] was “very strong activity” each time. Moreover, the “tolerance by crop plants” value in data set [3] (in vivo) and in data set [5] (in vivo) was “essentially being tolerated well” each time.

Regarding `CCS(=O)(=O)N(C(=O)c1nn(C)c(OC(F)F)c1C)c1cc(-n2ncc(=O)n(C)c2=O)c(F)cc1C#N` [Example 23], in data set [1], the “logP a)” value is “m.p.: 187 °C logP = 2.82^a)”. Also, the “activity against weeds” value in the data set on weeds [2] and with weeds [4] was “very strong activity” in each case. Further, the “tolerance by crop plants” value in data set [3] (in vivo) and in data set [5] (in vivo) was “essentially being tolerated well” throughout.

With `CCS(=O)(=O)N(C(=O)COC)c1cc(-n2ncc(=O)n(C)c2=O)c(F)cc1C#N` [Example 25], the “logP a)” value in data set [1] is given as “logP = 1.82^a)”. Further, the “activity against weeds” value in the data set with weeds [2] and with weeds [4] was “very strong activity” throughout. Also, the “tolerance by crop plants” value in data set [3] (in vivo) and in data set [5] (in vivo) was “essentially being tolerated well” in each case.

Consider `CCS(=O)(=O)N(C(=O)c1ccc(F)cc1)c1cc(-n2ncc(=O)n(C)c2=O)c(F)cc1C#N` [Example 26], for which the “logP a)” value in data set [1] was “m.p.: 123 °C logP = 2.60^a)”. The “activity against weeds” value in the data set on weeds [2] and in the data set with weeds [4] was “very strong activity” each time. Also, the “tolerance by crop plants” value in data set [3] (in vivo) and in data set [5] (in vivo) was “essentially being tolerated well” throughout.

In the case of `CCS(=O)(=O)N(C(=O)CCCCl)c1cc(-n2ncc(=O)n(C)c2=O)c(F)cc1C#N` [Example 27], the “logP a)” value in data set [1] is on record as “logP = 2.43^a)”. Also, the “activity against weeds” value with weeds [2] and in the data set on weeds [4] was “very strong activity” in each case. The “tolerance by crop plants” value in data set [3] (in vivo) and in data set [5] (in vivo) was “essentially being tolerated well” in each case.

Consider `CCS(=O)(=O)N(C(C)=O)c1cc(-n2ncc(=O)n(C)c2=O)c(F)cc1C#N` [Example 28], for which, in data set [1], the “logP a)” value is on record as “logP = 1.79^a)”. Besides, the “activity against weeds” value in the data set on weeds [2] and in the data set on weeds [4] was “very strong activity” in each case. For the same compound, the “tolerance by crop plants” value in data set [3] (in vivo) and in data set [5] (in vivo) was “essentially being tolerated well” in each case.

Regarding `CCS(=O)(=O)N(C(=O)CCCBr)c1cc(-n2ncc(=O)n(C)c2=O)c(F)cc1C#N` [Example 30], the “logP a)” value in data set [1] was “logP = 2.51^a)”. Moreover, the “activity against weeds” value in the data set on weeds [2] and in the data set with weeds [4] was “very strong activity” each time. The “tolerance by crop plants” value in data set [3] (in vivo) and in data set [5] (in vivo) was “essentially being tolerated well” throughout.

On to `CCS(=O)(=O)N(C(=O)CCC1CCCCC1)c1cc(-n2ncc(=O)n(C)c2=O)c(F)cc1C#N` [Example 31], for which the “logP a)” value in data set [1] was “m.p.: 123 °C logP = 3.66^a)”. Also, the “activity against weeds” value in the data set with weeds [2] and in the data set with weeds [4] was “very strong activity” throughout. For the same compound, the “tolerance by crop plants” value in data set [3] (in vivo) and in data set [5] (in vivo) was “essentially being tolerated well” each time.

For `CCS(=O)(=O)N(C(=O)C=C(C)C)c1cc(-n2ncc(=O)n(C)c2=O)c(F)cc1C#N` [Example 32], in data set [1] (a) acidic range: 0.1% aqueous phosphoric acid, acetonitrile gradient, HPLC C 18, 43° C.), the “logP a)” value is “m.p.: 150 °C logP = 2.40^a)”. In addition, the “activity against weeds” value with weeds [2] and in the data set with weeds [4] was “very strong activity” in each case. The “tolerance by crop plants” value is “essentially being tolerated well” in data set [3] (pre-emergence, barley, wheat, rapeseed, soya and sugar beet, rated after three weeks); “essentially being tolerated well” in data set [5] (post-emergence, barley and wheat, rated after three weeks).

For `CCS(=O)(=O)N(C(=O)COc1ccccc1Cl)c1cc(-n2ncc(=O)n(C)c2=O)c(F)cc1C#N` [Example 35], in data set [1], the “logP a)” value was “m.p.: 220 °C logP = 2.89^a)”. Further, the “activity against weeds” value with weeds [2] and with weeds [4] was “very strong activity” throughout. The “tolerance by crop plants” value in data set [3] (in vivo) and in data set [5] (in vivo) was “essentially being tolerated well” each time.

On to `CCS(=O)(=O)N(C(=O)Cc1ccc(F)cc1F)c1cc(-n2ncc(=O)n(C)c2=O)c(F)cc1C#N` [Example 36], for which the “logP a)” value in data set [1] was “m.p.: 210 °C logP = 2.73^a)”. Moreover, the “activity against weeds” value with weeds [2] and in the data set with weeds [4] was “very strong activity” each time. The “tolerance by crop plants” value in data set [3] (in vivo) and in data set [5] (in vivo) was “essentially being tolerated well” in each case.

With `CCS(=O)(=O)N(C(=O)Cc1ccc(Cl)cc1)c1cc(-n2ncc(=O)n(C)c2=O)c(F)cc1C#N` [Example 42], the “logP a)” value in data set [1] was “m.p.: 222 °C logP = 2.96^a)”. Also, the “activity against weeds” value in the data set on weeds [2] and in the data set on weeds [4] was “very strong activity” each time. Besides, the “tolerance by crop plants” value in data set [3] (in vivo) and in data set [5] (in vivo) was “essentially being tolerated well” in each case.

Turning to `CCS(=O)(=O)N(C(=O)COc1ccccc1)c1cc(-n2ncc(=O)n(C)c2=O)c(F)cc1C#N` [Example 43], the “logP a)” value in data set [1] is “m.p.: 222 °C logP = 2.96^a)”. The “activity against weeds” value in the data set on weeds [2] and in the data set on weeds [4] was “very strong activity” in each case. The “tolerance by crop plants” value in data set [3] (in vivo) and in data set [5] (in vivo) was “essentially being tolerated well” in each case.

`CCS(=O)(=O)N(C(=O)CCc1ccc(Cl)c(Cl)c1)c1cc(-n2ncc(=O)n(C)c2=O)c(F)cc1C#N` [Example 44]: the “logP a)” value in data set [1] was “m.p.: 142 °C logP = 2.52^a)”. Moreover, the “activity against weeds” value in the data set on weeds [2] and with weeds [4] was “very strong activity” in each case. In addition, the “tolerance by crop plants” value in data set [3] (in vivo) and in data set [5] (in vivo) was “essentially being tolerated well” in each case.

For the compound `CCS(=O)(=O)N(C(=O)Cc1ccc(OC)cc1)c1cc(-n2ncc(=O)n(C)c2=O)c(F)cc1C#N` [Example 45], the “logP a)” value in data set [1] is “m.p.: 221 °C logP = 2.58^a)”. The “activity against weeds” value with weeds [2] and in the data set on weeds [4] was “very strong activity” throughout. Moreover, the “tolerance by crop plants” value in data set [3] (in vivo) and in data set [5] (in vivo) was “essentially being tolerated well” in each case.
